Data from PubChem BioAssay AID248 (DTP/NCI, 2004).
Values joined by “and” are separate entries in the source; they are usually repeats but may differ in a detail not shown here. Equal entries are not always repeated. Toxic doses and inconclusive results are not listed. Cut-off read from the data, not from the text of the source: active = T/C of 150% or more; inactive = T/C below 125%.

Tested on: L1210 leukemia ip in BDF1 mice, survival T/C
Experiment: NCI In Vivo Anticancer Drug Screen. Data for tumor model L1210 Leukemia (intraperitoneal) in B6D2F1 (BDF1) mice
Details: endpoint: mean survival time, higher = longer survival
How it was run: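 Tumor was transplanted into mice, which were then dosed with test compound or vehicle alone. Survival was recorded for each group, and the treated figure was expressed relative to the control figure.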

[1] = dose: 100.0 mg/kg/injection, schedule: Q04DX003 (ip), vehicle: Klucel (hydroxypropylcellulose) (HPC)
[2] = dose: 200.0 mg/kg/injection, schedule: Q04DX003 (ip), vehicle: Klucel (hydroxypropylcellulose) (HPC)
[3] = dose: 400.0 mg/kg/injection, schedule: Q04DX003 (ip), vehicle: Klucel (hydroxypropylcellulose) (HPC)
[4] = dose: 100.0 mg/kg/injection, schedule: Q04DX002 (ip), vehicle: saline
[5] = dose: 100.0 mg/kg/injection, schedule: Q01DX009 (ip), vehicle: Klucel (hydroxypropylcellulose) (HPC)
[6] = dose: 200.0 mg/kg/injection, schedule: Q01DX009 (ip), vehicle: Klucel (hydroxypropylcellulose) (HPC)
[7] = dose: 6.25 mg/kg/injection, schedule: Q01DX009 (ip), vehicle: saline with Tween-80
[8] = dose: 12.5 mg/kg/injection, schedule: Q01DX009 (ip), vehicle: saline with Tween-80
[9] = dose: 100.0 mg/kg/injection, schedule: Q04DX002 (ip), vehicle: Klucel (hydroxypropylcellulose) (HPC)
[10] = dose: 200.0 mg/kg/injection, schedule: Q04DX002 (ip), vehicle: Klucel (hydroxypropylcellulose) (HPC)
[11] = dose: 400.0 mg/kg/injection, schedule: Q04DX002 (ip), vehicle: Klucel (hydroxypropylcellulose) (HPC)
[12] = dose: 100.0 mg/kg/injection, schedule: Q01DX009 (ip), vehicle: saline
[13] = dose: 200.0 mg/kg/injection, schedule: Q01DX009 (ip), vehicle: saline
[14] = dose: 100.0 mg/kg/injection, schedule: Q04DX003 (ip), vehicle: saline with Tween-80
[15] = dose: 200.0 mg/kg/injection, schedule: Q04DX003 (ip), vehicle: saline with Tween-80
[16] = dose: 400.0 mg/kg/injection, schedule: Q01DX009 (ip), vehicle: saline

Measured: T/C

ClCCN(CC1C(c2ccccc2)C1c1ccccc1)C1CCCCC1 (stereo not drawn)
inactive: dose: 1.5 mg/kg/injection, schedule: Q04DX002 (ip), vehicle: Klucel (hydroxypropylcellulose) (HPC) 104 % of control | dose: 3.1 mg/kg/injection, schedule: Q04DX002 (ip), vehicle: Klucel (hydroxypropylcellulose) (HPC) 92 % of control | dose: 6.25 mg/kg/injection, schedule: Q04DX002 (ip), vehicle: Klucel (hydroxypropylcellulose) (HPC) 92 % of control

O=[N+]([O-])/C(Br)=C\c1ccc([N+](=O)[O-])cc1
inactive: dose: 75.0 mg/kg/injection, schedule: Q01DX001 (ip), vehicle: carboxymethylcellulose (CMC) 98 % of control | dose: 150.0 mg/kg/injection, schedule: Q01DX001 (ip), vehicle: carboxymethylcellulose (CMC) 105 % of control

Cc1cc(=O)n(/C=C/C(=O)O)c2ccccc12
inactive: [1] 97 % of control | [2] 112 % of control | [3] 94 % of control

CCCCCC(=O)C#Cc1ccccc1
inactive: dose: 6.25 mg/kg/injection, schedule: Q01DX009 (ip), vehicle: other 90 % of control | dose: 12.5 mg/kg/injection, schedule: Q01DX009 (ip), vehicle: other 95 % of control | dose: 25.0 mg/kg/injection, schedule: Q01DX009 (ip), vehicle: other 94 % of control and 96 % of control | dose: 50.0 mg/kg/injection, schedule: Q01DX009 (ip), vehicle: other 91 % of control | dose: 100.0 mg/kg/injection, schedule: Q01DX009 (ip), vehicle: other 93 % of control and 86 % of control

CCCCCCC#CC(=O)OCCCCCC
inactive: [4] 108 % of control | dose: 200.0 mg/kg/injection, schedule: Q04DX002 (ip), vehicle: saline 94 % of control | dose: 400.0 mg/kg/injection, schedule: Q04DX002 (ip), vehicle: saline 97 % of control

CC1=CC(=O)NC1=O
inactive: dose: 25.0 mg/kg/injection, schedule: Q04DX003 (ip), vehicle: saline 103 % of control | dose: 50.0 mg/kg/injection, schedule: Q04DX003 (ip), vehicle: saline 98 % of control | dose: 100.0 mg/kg/injection, schedule: Q04DX003 (ip), vehicle: saline 97 % of control

O=S1(=O)CC23CC=CCC2(CC=CC3)C1 (stereo not drawn)
inactive: dose: 50.0 mg/kg/injection, schedule: Q01DX009 (ip), vehicle: Klucel (hydroxypropylcellulose) (HPC) 100 % of control | [5] 97 % of control | [6] 96 % of control

CCOc1ccc(NC(=S)NC(=O)c2ccco2)cc1
inactive: dose: 100.0 mg/kg/injection, schedule: Q01DX009 (ip), vehicle: saline with Tween-80 93 % of control | [1] 104 % of control | dose: 200.0 mg/kg/injection, schedule: Q01DX009 (ip), vehicle: saline with Tween-80 93 % of control | [2] 94 % of control | [3] 100 % of control

CCN(CC)CCNc1cc(C)nc(/N=C(\N)Nc2ccc(OCc3ccccc3)cc2)n1
inactive: [7] 100 % of control | dose: 6.25 mg/kg/injection, schedule: Q04DX003 (ip), vehicle: saline with Tween-80 103 % of control | [8] 98 % of control | dose: 12.5 mg/kg/injection, schedule: Q04DX003 (ip), vehicle: saline with Tween-80 101 % of control | dose: 25.0 mg/kg/injection, schedule: Q04DX003 (ip), vehicle: saline with Tween-80 103 % of control

COc1ccc(OC)c(NC(=O)Oc2ccc(Br)cc2Br)c1
inactive: [9] 104 % of control | [10] 104 % of control | [11] 86 % of control

CCOC(=O)/C(C#N)=C(\CC)c1ccccc1
inactive: [5] 98 % of control | [6] 101 % of control

CC1([N+](=O)[O-])COP(=O)(O)OC1 (stereo not drawn)
inactive: dose: 200.0 mg/kg/injection, schedule: Q01DX001 (ip), vehicle: saline 90 % of control | dose: 400.0 mg/kg/injection, schedule: Q01DX001 (ip), vehicle: saline 97 % of control

COc1ccc(OC)c(NC(=O)Nc2ccc(Nc3ccccc3)cc2)c1
inactive: [2] 93 % of control | [3] 100 % of control

COC(=O)C1C(O)C(C)C(=O)C(C)/C=C\C=C(C)C(=O)Nc2c(C)c(OC(C)=O)c3c(c2O)C(=O)C(C)=C2OCOC(=C23)C(C)=CC(C)(O)C(O)C(C)C1O (stereo not drawn)
inactive: dose: 25.0 mg/kg/injection, schedule: Q01DX009 (ip), vehicle: saline 96 % of control | dose: 50.0 mg/kg/injection, schedule: Q01DX009 (ip), vehicle: saline 98 % of control | [12] 96 % of control | [13] 98 % of control

O=C1c2ccccc2C(=O)N1c1ccc(CBr)cc1
inactive: dose: 100.0 mg/kg/injection, schedule: Q01DX001 (ip), vehicle: Klucel (hydroxypropylcellulose) (HPC) 98 % of control | [5] 92 % of control and 94 % of control | [9] 106 % of control and 89 % of control | [1] 98 % of control | dose: 200.0 mg/kg/injection, schedule: Q01DX001 (ip), vehicle: Klucel (hydroxypropylcellulose) (HPC) 94 % of control | [6] 89 % of control | [10] 97 % of control and 102 % of control | [2] 90 % of control | dose: 400.0 mg/kg/injection, schedule: Q01DX001 (ip), vehicle: Klucel (hydroxypropylcellulose) (HPC) 89 % of control | [11] 92 % of control and 115 % of control | [3] 102 % of control

Cc1ccc(C)c(N=C=O)c1
inactive: [7] 98 % of control | [8] 96 % of control | dose: 25.0 mg/kg/injection, schedule: Q01DX009 (ip), vehicle: saline with Tween-80 93 % of control | [14] 104 % of control | [15] 109 % of control

CC(=O)OCC1OC(N2C(=O)/C(=C/c3cccs3)SC2=S)C(OC(C)=O)C(OC(C)=O)C1OC(C)=O (stereo not drawn)
inactive: dose: 25.0 mg/kg/injection, schedule: Q01DX005 (ip), vehicle: other 96 % of control | dose: 50.0 mg/kg/injection, schedule: Q01DX005 (ip), vehicle: other 100 % of control | dose: 100.0 mg/kg/injection, schedule: Q01DX005 (ip), vehicle: other 97 % of control | dose: 200.0 mg/kg/injection, schedule: Q01DX005 (ip), vehicle: other 88 % of control

O=C(O)C1CCCCC1C(=O)Nc1ccc(Br)cc1 (stereo not drawn)
inactive: [9] 100 % of control | [10] 100 % of control | [11] 118 % of control

C=COCCC(C(=O)OCC)C(=O)OCC
inactive: [12] 100 % of control | [13] 96 % of control | [16] 100 % of control

O=Cc1c(O)ccc2ccccc12
inactive: [9] 90 % of control | [10] 93 % of control | [11] 96 % of control

CC1NCCNCCNCCNC(C)c2cccc1n2 (stereo not drawn)
inactive: dose: 25.0 mg/kg/injection, schedule: Q04DX002 (ip), vehicle: saline 90 % of control | dose: 50.0 mg/kg/injection, schedule: Q04DX002 (ip), vehicle: saline 107 % of control | [4] 89 % of control

O=C(OCC#CCOC(=O)C(Cl)Cl)C(Cl)Cl
inactive: [12] 107 % of control | [13] 91 % of control | [16] 94 % of control

CCCCCCC(C)OC(=O)CCl (stereo not drawn)
inactive: [14] 102 % of control | [15] 104 % of control | dose: 400.0 mg/kg/injection, schedule: Q04DX003 (ip), vehicle: saline with Tween-80 109 % of control
